Values after ≈ are worked out from the molar mass of the structure shown. Active and inactive are the calls of the source. The rule behind the calls is not given here.
What was measured:
Chloride [1] = test: Binding affinity to chloride anions assessed as anionophoric activity in egg-yolk L-alpha-phosphatidylcholine liposome model measured per lipid by pyranine-based fluorescent assay
Chloride [2] = test: Binding affinity to chloride anions using tetrabutylammonium chloride salt assessed as association constant by 1H NMR spectroscopy
Liposome = test: Disruption of egg-yolk L-alpha-phosphatidylcholine liposome model membrane assessed as calcein leakage by fluorescence based assay; type: subcellular
Chloride [3] = test: Binding affinity to chloride anions assessed as chloride efflux in egg-yolk L-alpha-phosphatidylcholine liposome model harboring intravesicular LiCl/extravesicular NaNO3
Chloride [4] = test: Binding affinity to chloride anions assessed as chloride efflux in egg-yolk L-alpha-phosphatidylcholine liposome model harboring intravesicular KCl/extravesicular NaNO3
Chloride [5] = test: Binding affinity to chloride anions assessed as transport of chloride anions across bulky nitrobenzene membrane in U-shaped tube harboring NaCl in donor phase and NaNO3 in receiving phase at 1 mM measured for 12 hrs by chloride ion selective electrode technique
Chloride [6] = test: Binding affinity to chloride anions in human HeLa cells assessed as decrease in orange fluorescence in cytoplasm at 5 uM incubated for 6 hrs by AO staining based analysis relative to control; type: cell-based; parameters: scale not given: the % may be the effect or the level left
Chloride [7] = test: Binding affinity to chloride anions in human HeLa cells assessed as decrease in red fluorescence in cytoplasm at 5 uM incubated for 1.5 hrs by MR-(RR)2 staining based analysis; type: cell-based
Chloride [8] = test: Binding affinity to chloride anions in human HeLa cells assessed as increase in chloride influx at 1 uM measured after 30 to 60 mins by inverted fluorescence microscopy; type: cell-based; conditions: time 30-60 min
Chloride [9] = test: Binding affinity to chloride anions in human HeLa cells assessed as increase in chloride influx at 1 uM measured after 30 to 60 mins by flow cytometry; type: cell-based; conditions: time 30-60 min
HeLa [10] = test: Cytotoxicity against human HeLa cells assessed as decrease in cell viability cultured in chloride-containing extracellular medium at 0.05 to 5 uM incubated for 12 hrs; type: functional, cell-based; conditions: dose 0.05-5 µM
HeLa [11] = test: Cytotoxicity against human HeLa cells assessed as decrease in cell viability at 0.01 to 10 uM pretreated with Z-VAD-FMK/Fer-1 followed by compound addition by MTT assay; type: functional, cell-based; conditions: dose 0.01-10 µM
HeLa [12] = test: Cytotoxicity against human HeLa cells assessed as decrease in cell viability at 0.01 to 10 uM pretreated with 3-MA followed by compound addition by MTT assay; type: functional, cell-based; conditions: dose 0.01-10 µM
HeLa [13] = test: Cytotoxicity against human HeLa cells assessed as decrease in cell viability at 0.01 to 10 uM pretreated with Nec-1 followed by compound addition by MTT assay; type: functional, cell-based; conditions: dose 0.01-10 µM
[14] = target: Tubulin beta (Homo sapiens) (UniProt P68371+Q9H4B7+Q13509+P04350+Q3ZCM7+P07437+Q13885+Q9BVA1+Q9BUF5+A6NNZ2); test: Induction of beta-tubulin degradation in human HeLa cells at 1 uM preincubated with MG132 followed by compound addition measured after 24 hrs by immunoblotting analysis; type: cell-based
Tubulin (Homo sapiens) = Tubulin (Homo sapiens) (UniProt P68371+Q9H4B7+P0DPH7+P68366+Q13509+Q71U36+P04350+Q3ZCM7+P07437+P68363+Q9BQE3+Q6PEY2+Q13885+Q9BVA1+Q9BUF5); test: Induction of tubulin degradation in human HeLa cells assessed as disruption of tubulin network at 10 uM incubated for 16 hrs by immunofluorescence based analysis; type: cell-based
HeLa [15] = test: Induction of mitochondrial membrane permeability in human HeLa cells assessed as red fluorescence at 0.1 uM incubated for 24 hrs by JC-1 staining based analysis (reference value: 98.5 %); type: functional
HeLa [16] = test: Induction of mitochondrial membrane permeability in human HeLa cells assessed as green fluorescence at 0.5 uM incubated for 24 hrs by JC-1 staining based analysis (reference value: 1.5 %); type: functional
HeLa [17] = test: Induction of mitochondrial membrane permeability in human HeLa cells assessed as green fluorescence at 1 uM incubated for 24 hrs by JC-1 staining based analysis (reference value: 1.5 %); type: functional
HeLa [18] = test: Induction of lipid peroxidation in human HeLa cells assessed as increase in MDA level incubated for 12 hrs by absorbance based assay; type: functional, cell-based; conditions: dose 0.1-1 µM
HeLa [19] = test: Induction of lipid peroxidation in human HeLa cells by flow cytometry; type: functional, cell-based; conditions: dose 0.1-1 µM
HeLa [20] = test: Induction of ferroptosis in human HeLa cells assessed as increase in Bax level at 0.1 to 1 uM incubated for 24 hrs by immunoblotting analysis; type: functional, cell-based; conditions: dose 0.1-1 µM
HeLa [21] = test: Induction of ferroptosis in human HeLa cells assessed as increase in PARP-1 cleavage at 0.1 to 1 uM incubated for 24 hrs by immunoblotting analysis; type: functional, cell-based; conditions: dose 0.1-1 µM
HeLa [22] = test: Induction of ferroptosis in human HeLa cells assessed as decrease in Bcl-2 level at 0.1 to 1 uM incubated for 24 hrs by immunoblotting analysis; type: functional, cell-based; conditions: dose 0.1-1 µM
[23] = Aqueous solubility of compound; type: physicochemical
[24] = AUC (0 to infinity) in male CD-1 mouse at 1 mg/kg, iv measured for 0.083 to 48 hrs by HPLC/MS/MS analysis; type: ADME, organism-based; conditions: in vivo, time 0.083-48 hrs
[25] = MRT (0 to infinity) in male CD-1 mouse at 1 mg/kg, iv measured for 0.083 to 48 hrs by HPLC/MS/MS analysis; type: ADME, organism-based; conditions: in vivo, time 0.083-48 hrs
[26] = Half life in male CD-1 mouse at 1 mg/kg, iv measured for 0.083 to 48 hrs by HPLC/MS/MS analysis; type: ADME, organism-based; conditions: in vivo, time 0.083-48 hrs
[27] = Cmax in male CD-1 mouse at 1 mg/kg, iv measured for 0.083 to 48 hrs by HPLC/MS/MS analysis; type: ADME, organism-based; conditions: in vivo, time 0.083-48 hrs
[28] = AUC (0 to t) in male CD-1 mouse at 1 mg/kg, ip measured for 0.083 to 48 hrs by HPLC/MS/MS analysis; type: ADME, organism-based; conditions: in vivo, time 0.083-48 hrs
[29] = AUC (0 to infinity) in male CD-1 mouse at 1 mg/kg, ip measured for 0.083 to 48 hrs by HPLC/MS/MS analysis; type: ADME, organism-based; conditions: in vivo, time 0.083-48 hrs
HeLa [30] = test: Antitumor activity against human HeLa cells xenografted in male Balb/C nude mouse assessed as average tumor size at 20 mg/kg, ip administered on every 2 days measured after 18 days (reference value: 1995.1 mm3); type: functional; conditions: time 18 day
HeLa [31] = test: Antitumor activity against human HeLa cells xenografted in male Balb/C nude mouse assessed as reduction in tumor weight at 10 mg/kg, ip administered on every 2 days measured after 18 days relative to control; type: functional; parameters: scale not given: the % may be the effect or the level left; conditions: time 18 day
HeLa [32] = test: In vivo induction of ferroptosis in human HeLa cells xenografted in male Balb/C nude mouse assessed as increase in cleaved caspase-3 level administered intraperitoneally on every 2 days measured after 18 days by immunoblotting analysis; type: functional, organism-based; conditions: dose 10-20 mg/kg, route ip, time 18.0 day
[33] = Toxicity in male Balb/C nude mouse xenografted with human HeLa cells assessed as abnormalities in spleen at 10 to 20 mg/kg, ip administered on every 2 days measured after 18 days by H and E staining based analysis; type: organism-based; conditions: in vivo, 432 h, dose 10-20 mg/kg, time 18 day
[34] = Drug concentration in plasma of C57BL/6 mouse at 5 mg/kg, iv measured after 4 hrs by HPLC/MS/MS analysis; type: ADME, organism-based

- EC50 (Chloride [1]): 4.16 10^-2mol%
- Ka (Chloride [2]): 1.48 10^3/M
- Activity (Liposome): inactive
- Activity (Chloride [3]): Active
- Activity (Chloride [4]): Active
- Activity (Chloride [5]): Active
- Activity [14]: inactive
- Activity (Tubulin (Homo sapiens)): Active
- solubility [23]: 200 µg/mL (≈ 333 µM)
- AUC(0-inf) [24]: 17800 ng·h/mL
- MRT inf [25]: 3.14 h
- half-life [26]: 5.11 h
- Cmax [27]: 22700 ng/mL
- AUC(0-t) [28]: 3850 ng·h/mL
- AUC(0-inf) [29]: 4610 ng·h/mL
- concentration at 4 h [34]: 99.2 µM
SMILES: Fc1cc(-c2nc3c(C(F)(F)F)cc(C(F)(F)F)cc3[nH]2)cc(-c2nc3c(C(F)(F)F)cc(C(F)(F)F)cc3[nH]2)c1
- Activity (Chloride [6]): 100%
- Activity (Chloride [7]): Active; The Result Reveals That Compound Can Alkalize Lysosomes
- Activity (Chloride [8]): Active
- Activity (Chloride [9]): Active
- Activity (HeLa [10]): Active
- Activity (HeLa [11]): Not active; Z-Vad-Fmk/Fer-1 Rescued Cells In Dose-Dependent Manner
- Activity (HeLa [12]): Active
- Activity (HeLa [13]): Active
- Activity (HeLa [15]): 90.5%
- Activity (HeLa [16]): 44.9%
- Activity (HeLa [17]): 66.8%
- Activity (HeLa [18]): Dose-dependent-effect
- Activity (HeLa [19]): Dose-dependent-effect
- Activity (HeLa [20]): Active
- Activity (HeLa [21]): Active
- Activity (HeLa [22]): Active
- Activity (HeLa [30]): 626.1 mm3
- Activity (HeLa [31]): 57%
- Activity (HeLa [32]): Dose-dependent-effect
- Activity [33]: Non-toxic
